Data taken from patent publication US20100310660A1, “DRY POWDER MICROPARTICLES FOR PULMONARY DELIVERY” (TAIPEI MEDICAL UNIVERSITY, priority 2009, published 2010).
Structures can show the parent of a compound that is named as a salt.

System: A549 cells
Test: Photocytotoxicity (MTT assay after LED irradiation)
Format: cell-based, Human
Conditions: 0.5 μg/ml Hp, 3 hours
Procedure: Human lung adenocarcinoma A549 cells were kept in a humidified incubator containing 5% CO2 at 37° C. A549 cells were cultured in DMEM supplemented with 10% fetal bovine serum (FBS) and 1% penicillin-streptomycin (GIBCO BRL, USA). The cells were routinely grown in tissue culture flask and harvested with a solution of 1% trypsin while in the logarithmic phase of growth. The cells were kept in the above culture conditions for experiments.
A549 cells were grown in 96-well plates at a density of 8×10^3 cells/well for 24 hours. […] The cells were incubated for 3 hours (protection from light) and washed once with 100 μl PBS/well. The no phenol red medium (100 μl/well) was added to the cells and then irradiated with various doses of light using LED (635±5 nm, 60 mW/cm^2) light source. After light irradiation, the original medium was removed and DMEM containing 10% FBS was added to each well. Twenty-four hours later, cell survival was measured using an MTT [3(4,5-dimethyl-thiazoyl-2-yl) 2,5 diphenyl-tetrazolium bromide] assay. The MTT assay was based on the activity of mitochondria dehydrogenases wherein a water-soluble tetrazolium salt was reduced to a purple insoluble formazan product. The amount of MTT formazan product was analyzed with spectrophotometer at the absorbance of 570 nm.

CC1=C(CCC(=O)O)c2cc3[nH]c(cc4nc(cc5[nH]c(cc1n2)c(C)c5C(C)O)C(C)=C4C(C)O)c(C)c3CCC(=O)O (centres unmarked) [Hp, Hematoporphyrin Dihydrochloride] was tested, and the cells alive (irradiation at 4 J/cm2) was 89% and the cells alive (irradiation at 12 J/cm2) was 75%.
